The test system of this experiment is PARP 1. The experiment in a line: HTRF assay for PARP 1 inhibitory effect. It is filed as biochemical, human or bovine. The conditions noted are these: at 10 μM. From the text: In the HTRF PARP assay according to the invention, histones, as target proteins for modification by PARP, are labeled indirectly with an XL665 fluorophore. The antibody is labeled directly with a europium cryptate. If the XL665 fluorophore is in the direct vicinity in space, which is ensured by binding to the poly(ADP-ribose) on the histone, then an energy transfer is possible. The emission at 665 nm is thus directly proportional to the amount of bound antibody, which in turn is equivalent to the amount of poly(ADP-ribose). The measured signal thus corresponds to the PARP activity. The principle of measurement is depicted diagrammatically in FIG. 7. The materials used are identical to those used in the ELISA (see above) unless expressly stated.
Histones were dissolved in a concentration of 3 mg/ml in Hepes buffer (50 mM, pH=7.5). Biotinylation took place with sulfo-NHS-LC-biotin (Pierce, #21335T). A molar ratio of 4 biotin per histone was used. The incubation time was 90 minutes (RT). The biotinylated histones were then purified on a G25 SF HR10/10 column (Pharmacia, 17-0591-01) in Hepes buffer (50 mM, pH=7.0) in order to remove excess biotinylation reagent. […]
Measurement was then possible after 30 minutes (up to 4 hours). […] The Ki values were calculated as described for the ELISA. […]

With `O=c1[nH]nc(CN2CCN(c3ccccc3)CC2)c2ccccc12` [4-(4-phenylpiperazin-1-yl)methyl-2H-phthalazin-1-one], the “inhibition of PARP 1” value is given as 38%.
